Results on 14 molecules are retold here after ChEMBL document CHEMBL4020777, “Cytotoxic and apoptosis-inducing activities against human lung cancer cell lines of cassaine diterpenoids from the bark of Erythrophleum fordii” (Bioorg Med Chem Lett, 2017).

The term IC50 denotes the concentration that inhibits the measured activity by half. Low values mean greater potency in that assay, high ones weaker potency in that assay.

Assay [1] has as its system A549. The experiment in a line: Cytotoxicity against human A549 cells by MTT assay. The format is functional, cell-based. A general note: Tetrazolium assays rely on reduction of a dye to a coloured formazan, in cell work by metabolically active cells.
Assay [2] deals with NCI-H1975. The experiment in a line: Cytotoxicity against human NCI-H1975 cells by MTT assay. In kind it is functional, cell-based.
Assay [3] relates to NCI-H1299. The experiment in a line: Cytotoxicity against human NCI-H1299 cells by MTT assay. In kind it is functional, cell-based.
Assay [4] concerns A549. Kind of assay: Induction of apoptosis in human A549 cells assessed as early apoptotic cells at 0.3 uM after 48 hrs by Annexin-V-FITC/propidium iodide staining based flow cytometric method (reference value: 1.04 to 2.73%). The format is functional.
Assay [5] relates to A549. Kind of assay: Induction of apoptosis in human A549 cells assessed as late apoptotic cells at 0.3 uM after 48 hrs by Annexin-V-FITC/propidium iodide staining based flow cytometric method (reference value: 3.4 to 4.76%). The format is functional. In general terms: A flow cytometer gives signals particle by particle.
Assay [6] deals with NCI-H1975. Kind of assay: Induction of apoptosis in human NCI-H1975 cells assessed as early apoptotic cells at 0.3 uM after 48 hrs by Annexin-V-FITC/propidium iodide staining based flow cytometric method (reference value: 2.5 to 3.56%). In kind it is functional.
Assay [7] has as its system NCI-H1975. Kind of assay: Induction of apoptosis in human NCI-H1975 cells assessed as late apoptotic cells at 0.3 uM after 48 hrs by Annexin-V-FITC/propidium iodide staining based flow cytometric method (reference value: 2.92 to 4.29%). In kind it is functional.
In assay [8] the test system is NCI-H1299. Kind of assay: Induction of apoptosis in human NCI-H1299 cells assessed as early apoptotic cells at 0.3 uM after 48 hrs by Annexin-V-FITC/propidium iodide staining based flow cytometric method (reference value: 1.91%). The format is functional.
Assay [9] deals with NCI-H1299. Kind of assay: Induction of apoptosis in human NCI-H1299 cells assessed as late apoptotic cells at 0.3 uM after 48 hrs by Annexin-V-FITC/propidium iodide staining based flow cytometric method (reference value: 2.69%). In kind it is functional.
Assay [10] concerns A549. Kind of assay: Induction of apoptosis in human A549 cells assessed as early apoptotic cells at 0.1 uM after 48 hrs by Annexin-V-FITC/propidium iodide staining based flow cytometric method (reference value: 1.04 to 2.73%). The format is functional.
The test system of assay [11] is A549. The experiment in a line: Induction of apoptosis in human A549 cells assessed as late apoptotic cells at 0.1 uM after 48 hrs by Annexin-V-FITC/propidium iodide staining based flow cytometric method (reference value: 3.4 to 4.76%). The format is functional.
In assay [12] the test system is NCI-H1975. The experiment in a line: Induction of apoptosis in human NCI-H1975 cells assessed as early apoptotic cells at 0.1 uM after 48 hrs by Annexin-V-FITC/propidium iodide staining based flow cytometric method (reference value: 2.5 to 3.56%). The format is functional.
The subject of assay [13] is NCI-H1975. The experiment in a line: Induction of apoptosis in human NCI-H1975 cells assessed as late apoptotic cells at 0.1 uM after 48 hrs by Annexin-V-FITC/propidium iodide staining based flow cytometric method (reference value: 2.92 to 4.29%). In kind it is functional.
The test system of assay [14] is NCI-H1299. The experiment in a line: Induction of apoptosis in human NCI-H1299 cells assessed as early apoptotic cells at 0.1 uM after 48 hrs by Annexin-V-FITC/propidium iodide staining based flow cytometric method (reference value: 1.91%). The format is functional.
For assay [15], the system named is NCI-H1299. Kind of assay: Induction of apoptosis in human NCI-H1299 cells assessed as late apoptotic cells at 0.1 uM after 48 hrs by Annexin-V-FITC/propidium iodide staining based flow cytometric method (reference value: 2.69%). In kind it is functional.
In assay [16] the test system is A549. The experiment in a line: Induction of apoptosis in human A549 cells after 48 hrs by Annexin-V-FITC/propidium iodide staining based flow cytometric method. In kind it is functional, cell-based.
In assay [17] the test system is NCI-H1975. Kind of assay: Induction of apoptosis in human NCI-H1975 cells after 48 hrs by Annexin-V-FITC/propidium iodide staining based flow cytometric method. The format is functional, cell-based.
The subject of assay [18] is NCI-H1299. Kind of assay: Induction of apoptosis in human NCI-H1299 cells after 48 hrs by Annexin-V-FITC/propidium iodide staining based flow cytometric method. The format is functional, cell-based.
Assay [19] concerns A549. Kind of assay: Induction of apoptosis in human A549 cells assessed as early apoptotic cells at 3 uM after 48 hrs by Annexin-V-FITC/propidium iodide staining based flow cytometric method (reference value: 1.04 to 2.73%). In kind it is functional.
For assay [20], the system named is A549. The experiment in a line: Induction of apoptosis in human A549 cells assessed as late apoptotic cells at 3 uM after 48 hrs by Annexin-V-FITC/propidium iodide staining based flow cytometric method (reference value: 3.4 to 4.76%). The format is functional.
The test system of assay [21] is NCI-H1975. Kind of assay: Induction of apoptosis in human NCI-H1975 cells assessed as early apoptotic cells at 3 uM after 48 hrs by Annexin-V-FITC/propidium iodide staining based flow cytometric method (reference value: 2.5 to 3.56%). In kind it is functional.
Assay [22] concerns NCI-H1975. The experiment in a line: Induction of apoptosis in human NCI-H1975 cells assessed as late apoptotic cells at 3 uM after 48 hrs by Annexin-V-FITC/propidium iodide staining based flow cytometric method (reference value: 2.92 to 4.29%). The format is functional.
Assay [23] has as its system NCI-H1299. The experiment in a line: Induction of apoptosis in human NCI-H1299 cells assessed as early apoptotic cells at 3 uM after 48 hrs by Annexin-V-FITC/propidium iodide staining based flow cytometric method (reference value: 1.91%). The format is functional.
For assay [24], the system named is NCI-H1299. The experiment in a line: Induction of apoptosis in human NCI-H1299 cells assessed as late apoptotic cells at 3 uM after 48 hrs by Annexin-V-FITC/propidium iodide staining based flow cytometric method (reference value: 2.69%). The format is functional.

Regarding `CC[C@@]1(O)C(=O)OCc2c1cc1n(c2=O)Cc2cc3ccccc3nc2-1` [CAMPTOTHECIN], the results for the IC50 in [1], in [2] and in assay [3] were 0.7 µM, 1.2 µM and 0.8 µM, respectively. The Activity in assay [4] came out at 20.33%; in assay [5], 14.14%; in assay [6], 7.9%; in [7], 31.47%; in [8] it was 13.16%; in [9], 9.44%. For the same molecule, the Activity in assay [10] worked out at 14.17%; in assay [11] it was 10.25%; in assay [12] it was 5.54%; in assay [13] it was 6.73%; in assay [14] it was 13.04%; in [15], 5.22%. Besides, the Activity entry in [16], in [17] and in assay [18] was “Dose-dependent effect” each time.

Regarding `CNCCOC(=O)/C=C1\CC[C@H]2[C@@H]([C@@H](O)C(=O)[C@@H]3[C@]2(C)CCC[C@]3(C)C(=O)OC)[C@H]1C`, the figures for the IC50 in [1], in assay [2] and in assay [3] were 0.9 µM, 1 µM and 1.2 µM, respectively.

For `COC(=O)[C@@]1(C)CCC[C@@]2(C)[C@H]1[C@@H](O)C(=O)[C@H]1[C@@H](C)/C(=C/C(=O)OCCN(C)C)CC[C@@H]12`, the half-inhibitory concentration (IC50) amounted to 4.8 µM in assay [1], 5.9 µM in assay [2] and 3.8 µM in assay [3].

In the case of `COC(=O)CC1=CC[C@H]2[C@@H](C(=O)[C@H](O)[C@@H]3[C@]2(C)CCC[C@]3(C)C(=O)OC)[C@H]1C`, the IC50 in assay [1], in assay [2] and in [3] was more than 10 µM in each case.

Take `C/C=C(\C)C(=O)O[C@H]1CC[C@@]2(C)[C@@H]([C@@H](O)C(=O)[C@H]3[C@@H](C)/C(=C/C(=O)OC)CC[C@@H]32)[C@@]1(C)C(=O)OC`: the IC50 in assay [1], in [2] and in [3] was more than 10 µM each time.

For `C/C=C(\C)C(=O)O[C@H]1CC[C@@]2(C)[C@@H](C(=O)[C@H](O)[C@H]3[C@@H](C)/C(=C/C(=O)OCCNC)CC[C@@H]32)[C@@]1(C)C(=O)OC`, the IC50 in assay [1] is 1.4 µM; in [2], 1.1 µM; in [3], 1.2 µM.

Consider `COC(=O)[C@@]1(C)CCC[C@@]2(C)[C@H]1C[C@H](O)[C@H]1[C@@H](C)/C(=C/C(=O)OCCN(C)C)CC[C@@H]12`, for which the values for the IC50 in assay [1], in [2] and in assay [3] were 3.1 µM, 2.6 µM and 2.4 µM, respectively.

Turning to `COC(=O)[C@@]1(C)CCC[C@@]2(C)[C@H]1CC(=O)[C@H]1[C@@H](C)/C(=C/C(=O)OCCN(C)C)CC[C@@H]12`, the IC50 was determined as 3.4 µM in assay [1], 2.1 µM in assay [2] and 1.9 µM in [3].

On to `CNCCOC(=O)/C=C1\CC[C@H]2[C@@H](C(=O)[C@H](O)[C@@H]3[C@]2(C)CCC[C@]3(C)C(=O)OC)[C@H]1C`, for which the IC50 stood at 2.1 µM in assay [1], 3.3 µM in assay [2] and 1.5 µM in assay [3].

As to `C/C=C(\C)C(=O)O[C@H]1CC[C@@]2(C)[C@@H](CC(=O)[C@H]3[C@@H](C)/C(=C/C(=O)OCCNC)CC[C@@H]32)[C@@]1(C)C(=O)OC`, the IC50 in assay [1] was 0.5 µM; in assay [2], 0.4 µM; in assay [3] it was 0.9 µM. Besides, the Activity in [4] is recorded as 1.87%; in [5], 3.96%; in assay [19], 7.27%; in assay [20] it was 12.24%; in assay [6] it was 2.14%; in assay [7], 3.02%. Besides, the Activity came to 5.2% in [21]; 7.56% in [22]; 4.52% in assay [8]; 3.24% in assay [9]; 16.48% in [23]; 8.14% in assay [24]. In addition, the Activity result in [16], in [17] and in [18] was “Dose-dependent effect” throughout.

As to `COC(=O)/C=C1\CC[C@H]2[C@@H](C(=O)C[C@@H]3[C@]2(C)CC[C@H](OC(C)=O)[C@]3(C)C(=O)OC)[C@H]1C`, the concentration for half-maximal inhibition (IC50) in [1], in assay [2] and in assay [3] was more than 10 µM throughout.

With `COC(=O)[C@@]1(C)CCC[C@@]2(C)[C@H]1C(=O)[C@H](O)[C@H]1[C@@H](C)/C(=C/C(=O)OCCN(C)C)CC[C@@H]12`, the IC50 in [1], in assay [2] and in assay [3] was more than 10 µM each time.

As for `COC(=O)/C=C1\CC[C@H]2[C@@H]([C@@H](O)C(=O)[C@@H]3[C@]2(C)CCC[C@]3(C)C(=O)OC)[C@H]1C`, the IC50 in assay [1], in [2] and in assay [3] was more than 10 µM in each case.

Take `COC(=O)/C=C1\CC[C@H]2[C@@H](C(=O)[C@H](O)[C@@H]3[C@]2(C)CCC[C@]3(C)C(=O)OC)[C@H]1C`: the IC50 in [1], in assay [2] and in [3] was more than 10 µM each time.
